{"source": "patent US5552156A", "about": "“Liposomal and micellular stabilization of camptothecin drugs” (Ohio State University, priority 1995, dated 1996)", "assay_type_in_all_cases": "physicochemical", "key": {"[1]": {"assay": "Overall association constant by fluorescence anisotropy titration, DMPC liposomes", "conditions": "DMPC, pH 3.0"}, "[2]": {"assay": "Fluorescence excitation and emission spectra of camptothecin drugs free in solution and bound to liposomes", "from_the_text": "The camptothecin drugs are intrinsically intensely fluorescent. Fluorescence is associated with the extended conjugation of the quinoline ring system. The liposomes of Examples 1-7 were characterized for the presence of the camptothecin drugs, using excitation and emission spectrography, and fluorescence anisotropy.\n(§1) Steady-state fluorescence measurements were obtained on a SLM Model 4800C. spectrofluorometer with a thermostated cuvette compartment. This instrument was interfaced with an IBM PS/2 model 55 SX computer. Excitation and emission spectra were recorded with an excitation resolution of 8 nm and an emission resolution of 4 nm. In all cases spectra were corrected for background fluorescence and scatter from unlabeled lipids or from solvents by subtraction of the spectrum of a blank. Steady-state fluorescence intensity measurements were made in the absence of polarizer. Steady-state anisotropy (a) measurements were determined with the instrument in the \"T-format\" for simultaneous measurement of two polarized intensities. The alignment of polarizers were checked routinely using a dilute suspension of 0.25 μm polystyrene microspheres from Polysciences, Inc, Warrington, Pa., in water; anisotropy values of >0.99 were obtained. The anisotropy was calculated from a=(Ivv -GlVH)/(Ivv +GIVH), where G-IVH /IHH and the subscripts refer to vertical and horizontal orientations of the excitation and emission polarizers, respectively.\n(§2) Anisotropy measurements for camptothecin, camptothecin carboxylate sodium salt, and 10,11-methylenedioxycamptothecin were conducted using exciting light of 370 nm and 420 nm long wave pass filters on each emission channel in order to isolate the fluorescence signal from background scatter and signal. For topotecan a 400 nm excitation wavelength and a 500 nm emission filter were used and for 9-aminocamptothecin a 375 nm excitation and a wavelength 420 nm emission filter were used. For AMC and CMC, a 370 nm excitation wavelength and a 400 nm emission filter were used. For 10-hydroxycamptothecin 375 nm excitation wavelength 500 nm emission filter was used. Emission filters were obtained from Oriel Corp. Stamford, Conn. The combination of exciting light and emission filters allows one to adequately separate the fluorescence from the background signal. The contribution of background fluorescence, together with scattered light, was typically less than 1% of the total intensity. Since the lactone ring of the camptothecin drug undergoes hydrolysis in aqueous medium, all measurements were completed within the shortest possible time, less than 1 minute after mixing the drug stock solution with PBS or the liposomes. In each case, analysis was initiated immediately after mixing the drug stock solution with PBS or with the liposomes. All measurements were performed at 37° C. unless otherwise noted.\nThe relative fluorescence intensity of 1×10^-6 M of camptothecin free in PBS buffer at 37° C. is shown. The emission spectra of the camptothecin was recorded using exciting light of 370 nm.\nAn exciting light of 390 nm was used to record the emission spectra of topotecan. A decrease in the emission intensity is observed for topotecan associated with the DMPG liposome.\nAll spectra were recorded using camptothecin drug concentrations of 2\nμM. The DMPC and DMPG concentrations were 0.29 M. Experiments were\nconducted in PBS buffer at 37° C.\nAlso found in Table II is a relative index of the emission intensity levels from these camptothecin drugs in PBS at their respective excitation and emission λMAX."}, "[3]": {"assay": "Steady-state fluorescence anisotropy in solvents and liposomes", "conditions": "pH 3, 37° C.", "procedure": "as §1, §2\nWhile the spectral changes provide qualitative evidence that the camptothecin drugs bind the liposome membranes, fluorescence anisotropy titration, offers the most sensitive means for quantitatively assessing the extent of the binding. The fluorescence anisotropy titration was performed according to the method of Burke and Tritton, Biochemistry 24: 1768-1776 (1985).\nA steady-state fluorescence anisotropy (a) measurement is related to the rotational rate of the fluorescent molecule through the Perrin Equation: […]\nwhere a0 is the limiting fluorescence anisotropy value, that is, the anisotropy value in the absence of depolarizing rotations, T is the excited-state lifetime, and .phi. is the rotational correlative time of the fluorophore. According to Equation 1, changes in either the T or .phi. values of a fluorescent compound can modulate its steady-state anisotropy.\nThe limiting fluorescence anisotropy (a0) values were also measured. The maximum values of (a) were obtained by dissolving the camptothecin drugs in the viscous solvent glycerol and cooling the samples to low temperatures. Steady-stated anisotropy (a) values were determined for samples containing 1 μM drug at 37° C.\nWhere the solvent viscosity is high and temperature is low, depolarizing rotations are at a minimum. By extrapolating these (a) values to -25° C., the limiting anisotropy values (a0) for the camptothecin drugs, were determined. […]"}, "[4]": {"assay": "HPLC assay of lactone ring hydrolysis, free in PBS or associated with liposomes or micelles", "procedure": "A high performance liquid chromatography assay was used to determine the rate of hydrolysis of camptothecin and topotecan free in aqueous solution and to compare such rates with the rate of hydrolysis for the same drugs when bound to the DMPG and DMPC liposome membranes. The assay was conducted under near physiological conditions; the pH was 7.4, the temperature was 37° C. and the ionic strength was physiological. A Spectroflow model 980 fluorescence detector coupled to an HP 3392A integrator which acquired and processed the chromatograms, was used. For camptothecin, an Ultrasphere ODS C-18 250 mm long column was used. The mobile phase consisted of 32% acetonitrile, 67% 0.1M acetate buffer, pH 5.5, and 1% 01.M sodium dodecylsulfate at a flow rate of 1 mL/min. The detector was set to 370 nm excitation wavelength and a 418 nm long pass emission filter. A 1 μM solution of camptothecin in PBS was prepared and incubated at 37° C. Immediately after mixing the drug stock solution with PBS and at intervals of 5 min thereafter, 50 μL aliquots were taken out and mixed with 150 μL methanolic internal standard, 9-toluoylamidocamptothecin and either analyzed immediately or kept cold under dry ice. 150 μL of this mixture was diluted with 125 μL water and 200 μL was injected. The ratio of the peak areas corresponding to the intact lactone form of the camptothecin drug and the internal standard at a particular time was normalized to that at the time of mixing and was considered as the concentration of the intact lactone form.\nFor topotecan the excitation wavelength was 362 nm and the emission was observed through a 470 long wave pass filter. The stationary phase was Waters Nova-Pak C-18 150mm long column. The mobile phase consisted of 500 mL 0.1M KH2 PO4, 550 mL acetonitrile, 4.2 mL triethylamine (distilled over molecular sieves), 4.44 g sodium dioctylsulfosuccinate (DOSS), and 970 ml water. The pH was adjusted to 6.0 with H3 PO4. Internal standard solution contained 50×10^-9 g acridine from Eastman and 20×10^-3 M DOSS in methanol and was always kept cold at ≤-20° C. Next 150 μL or cold internal standard solution was mixed with 50 μL aliquot containing topotecan, centrifuged for 1 minute and the supernatant was either analyzed immediately or stored at -20° C. for analysis at a later time, within 2 hours. Samples were monitored at time points from 0 minutes, that is, immediately following dissolution, up to 72 hours.\nThe kinetics of lactone ring hydrolysis for free camptothecin, CMC and topotecan are shown in of FIGS. 7a, 7b and 7c. Analysis of the decay profile for camptothecin, CMC and topotecan free in PBS was accomplished using a nonlinear least squares program."}}, "data": [{"smiles": "CCC1(O)C(=O)OCc2c1cc1n(c2=O)Cc2cc3c(N)cccc3nc2-1", "note": "(centres unmarked) [9-aminocamptothecin]", "values": [{"measurement": "overall association constant K, DMPC", "setting": "[1]", "result": 25, "unit": "M⁻¹"}, {"measurement": "λMAX emission, DMPC", "setting": "[2]; DMPC liposomes 0.29 M, pH 7.4, 37° C.", "result": 442, "unit": "nm"}, {"measurement": "λMAX emission, DMPG", "setting": "[2]; DMPG liposomes 0.29 M, pH 7.4, 37° C.", "result": 436, "unit": "nm"}, {"measurement": "shift of emission maxima upon decrease of pH / protonation", "setting": "[2]; free in PBS", "result": "about 25 nm"}, {"measurement": "reduction in emission intensity levels relative to camptothecin", "setting": "[2]; free in PBS, pH 7.4", "result": "1000 -fold"}, {"measurement": "λMAX emission, PBS", "setting": "[2]; free in PBS, pH 7.4, 37° C.", "result": 439, "unit": "nm"}, {"measurement": "Relative Fluorescence", "setting": "[2]; in PBS, pH 7.4, at excitation and emission λMAX", "result": 0.001}, {"measurement": "λMAX excitation", "setting": "[2]; pH 3.0", "result": 381, "unit": "nm"}, {"measurement": "spectral shift on association with DMPC liposomes, towards the blue region", "setting": "[2]; pH 3.0, DMPC", "result": 13, "unit": "nm"}, {"measurement": "λMAX emission, DMPC", "setting": "[2]; pH 3.0, DMPC liposomes", "result": 477, "unit": "nm"}, {"measurement": "Relative Fluorescence", "setting": "[2]; pH 3.0, PBS", "result": 0.001}, {"measurement": "λMAX emission, PBS", "setting": "[2]; pH 3.0, free in PBS", "result": 464, "unit": "nm"}, {"measurement": "λMAX excitation", "setting": "[2]; pH 7.4, 2 μM drug, PBS, 37° C.", "result": 381, "unit": "nm"}, {"measurement": "steady-state anisotropy (a), DMPC", "setting": "[3]; DMPC liposomes", "result": 0.190}, {"measurement": "steady-state anisotropy (a), PBS", "setting": "[3]; PBS", "result": 0.009}, {"measurement": "lactone hydrolysis when associated with liposomes", "setting": "[4]; DMPC and DMPG liposomes", "result": "some hydrolysis occurred at 1 hour"}, {"measurement": "C/L drug DMPC Lip.", "setting": "[4]; DMPC liposomes, pH 7.4, 37° C.", "result": 0.45}, {"measurement": "t1/2 drug DMPC Lip.", "setting": "[4]; DMPC liposomes, pH 7.4, 37° C.", "result": 56, "unit": "min"}, {"measurement": "C/L drug DMPG Lip.", "setting": "[4]; DMPG liposomes, pH 7.4, 37° C.", "result": 0.15}, {"measurement": "t1/2 drug DMPG Lip.", "setting": "[4]; DMPG liposomes, pH 7.4, 37° C.", "result": 49, "unit": "min"}, {"measurement": "lactone ring hydrolysis at 5 hours", "setting": "[4]; DMPG or DMPC liposomes, 5 hours", "result": "≤ 40", "unit": "%"}, {"measurement": "carboxylate/lactone ratio (C/L) free drug", "setting": "[4]; final equilibrium, free in PBS, pH 7.4, 37° C.", "result": 6.0}, {"measurement": "t1/2 free drug", "setting": "[4]; lactone hydrolysis, free in PBS, pH 7.4, 37° C.", "result": 22.5, "unit": "min"}]}]}
